In patent US8022036B2, “Use of thymosin alpha 1 for the treatment of immunological diseases” (Sigma-Tau Industrie Farmaceutiche Riunite S.p.A., priority 2006, dated 2011):
No end group written: not given here.

Experiments:
GM-DCs or FL-DCs = assay: Cytokine production and T cell priming by human DCs (ELISA); type: cell-based
Description: GM-DCs or FL-DCs were obtained from purified CD14+ monocytes from healthy donors or transplanted patients (1 month post-HSCT) cultured in Iscove's modified medium for 7-9 days, in the presence of rGM-CSF (Schering-Plough, Milan, Italy) and rIL-4 (Peprotech, Inalco, Milan, Italy) or FLT3-L (Immunex Corporation, Seattle, Wash.) (Blood. 2004; 103:4232-4239). DC recovery was between 20-30% reduced in cultures from transplanted patients. Murine GM-DCs or FL-DCs were obtained from bone marrow cells for 7-9 days, as described (Blood. 2004; 103:4232-4239). Thymosin alpha 1 and sThymosin alpha 1 were added to the cultures at 20 ng/mL. DCs (>99% CD11c+ consisting of 90-95% CD8-, 5-10% CD8+, and 1-5% B220+ cells) were purified from spleens (spDCs) by magnetic-activated sorting using CD11c MicroBeads and MidiMacs (Miltenyi Biotech). DC populations were further separated into CD8−, CD8+ and B220+ fractions by means of CD8 or B220 MicroBeads (Miltenyi Biotech). DCs were pulsed in serum-free Iscove medium for 24 hours with live unopsonized Aspergillus conidia or Zymosan from Saccharomyces cerevisiae (Sigma) or CpG-ODN 2006 as described.7 Phagocytosis was done as described (Blood. 2004; 103:4232-4239). Photographs were taken using a high Resolution Microscopy Color Camera AxioCam, using the AxioVision Software Rel. 3.1 (Carl Zeiss, Milan, Italy).
Cytokine content was assessed by enzyme-linked immunosorbent assays (Endogen Human Elisa Kits, R&D Systems and Euroclone, Milan, Italy). AID EliSpot assay kits (Amplimedical, Buttigliera Alta, Turin, Italy) were used on purified splenic CD4+ Tcells cocultured with conidia-pulsed DCs for 5 days to enumerate cytokine-producing cells (Blood. 2003; 102:3807-3814). 1-MT was used at 2 μM.
(C) Cytokine production (pg/mL by ELISA) by Thymosin alpha 1-induced DCs from healthy donors cultured in serum-free medium (1×10^6 cells/mL) with unopsonized Aspergillus conidia (5×10^5/mL) or 10 μg/mL Zymosan or 2 μg/mL CpG-B ODN 2006 for 24 hours. The data shown are aggregated results from three independent experiments and presented in the mean±SD. […]

A. fumigatus = assay: Aspergillosis in experimental HSCT after adoptive transfer of fungus-pulsed DCs; type: in vivo, mouse
Experimental: Human peripheral blood mononuclear cells were obtained from healthy donors and seven recipients of T-cell depleted haploidentical HSCT, upon written informed consent. Donor typing, engraftment and GVHD were assessed as described (Blood. 2005; 106; 4397-4406). Experimental HSCT model Lethally irradiated (8 Gy) C57BL6 mice were infused with T cell-depleted bone marrow cells from BALB/c mice (Blood. 2003; 102:3807-3814). For GVHD, purified donor CD3+ T splenocytes were added to the graft (Science. 2002; 295:2097-2100). Individual mice were graded weekly from 0-2 for each GVHD criterion (see legend to FIG. 3) without knowledge of treatment group.
The strain of A. fumigatus, the culture conditions and infection were as described in Blood. 2004; 103:4232-4239. Mice were anesthetized with 2.5% avertin (Sigma Chemical Co, St. Louis, Mo.). Quantification of fungal growth in the lungs was done by the chitin assay and results are expressed as micrograms of glucosamine per pair of lungs, and PAS staining was done as described in Blood. 2004; 103:4232-4239.
Mice received twice intraperitoneal injections of DCs, at weekly interval, starting a day after HSCT and infected a week after the last DC administration. Three days later, lung homogenates, CD4+ T cells (>98% on FACS analysis), CD4+CD25− (>98%) or CD4+CD25+ (>82%) purified with the specific Miltenyi Biotec isolation kits were assessed for pattern of pro- and anti-inflammatory (TNF-a/IL-10 in lung homogenates), Th1 (IFN-γ) or Th2 (IL-4) cytokine production by CD4+ cells stimulated with Aspergillus-pulsed DCs (Blood. 2003; 102:3807-3814) frequency of CD25+ IL-10^+ TGF-β+ T reg cells, lymphoproliferation and gene expression by RT-PCR. For proliferation, TLN CD4+ T lymphocytes were plated (10^5 cells/well) with 10^5 cells/well irradiated allogeneic splenocytes or autologous spDCs pulsed with conidia or 10 μg/mL Con A for five days before H^3-thymidine labeling.
Lethally irradiated C57BL/6 mice received=2×10^6 T cell-depleted allogeneic bone marrow cells from BALB/c mice 2 wk before the intratracheal injection of 2×10^8/80 μl saline Aspergillus conidia. One and seven days after transplantation, mice received Aspergillus-pulsed GM- or FL-DCs grown in Thymosin alpha 1, intraperitoneally.
Resistance to infection was assessed in terms of MST (median survival time in days) and fungal growth in the lung ([…] glucosamine content, bars indicating standard errors) 3 days after infection or at the time of death (A). […] The degree of systemic GVHD was assessed by a scoring system that sums changes in five clinical parameters: weight loss, posture (hunching), activity, fur texture, and skin integrity (maximum index=10). […]

Thymosin alpha 1: naturally occurring thymic peptide; supplied as purified, endotoxin-free sterile lyophilized acetylated polypeptide from SciClone Pharmaceuticals (Ac-SDAAVDTSSEITTKDLKEKKEVVEEAEN; UniProt P06454 2-29, looked up)
IL-10 production by GM-DCs (GM-DCs or FL-DCs; healthy donors, Aspergillus conidia, 24 hours): produced increased levels of IL-10 | IFN-a production (GM-DCs or FL-DCs; in response to Aspergillus conidia, Zymosan or CpG ODN): mainly produced by FL-DCs or Thymosin alpha 1-treated GM-DCs | priming for IL-10-producing CD4+ T cells (GM-DCs or FL-DCs; in vitro, Thymosin alpha 1-treated GM-DCs): primed for IL-10-producing CD4+ T cells in vitro | survival to infection in the presence of donor T cells (A. fumigatus; donor T cells plus Thymosin alpha 1-treated GM-DCs): survived infection | local inflammatory cell recruitment and reaction in the lungs (histopathology) (A. fumigatus; mice infused with Thymosin alpha 1-treated GM-DCs, 3 days after infection): few healing infiltrates of inflammatory cells with no evidence of bronchial wall damage and inflammatory response and low | vaccinating potential of FL-DCs (A. fumigatus; transfer of Thymosin alpha 1-treated FL-DCs): would not affect the vaccinating potential of FL-DCs | protection from aspergillosis (survival, fungal growth) (A. fumigatus; transfer of Thymosin alpha 1-treated GM-DCs, intraperitoneally): complete protection
